The source of these data is patent US6060451A, “Thrombin inhibitors based on the amino acid sequence of hirudin” (The National Research Council of Canada, priority 1995, dated 2000).

Structures can show the parent of a compound that is named as a salt. Where two headings read alike, the source gives them in different places. Starred links: 1 amine or outer side, 2 acyl side, 3 side chain; linkers in the order of their positions; H or OH if unused. Non-standard residues stand in square brackets, D forms with d. Residues, ends and D or L forms follow the SMILES beside them. Argψ(COCH2)Gly = N=C(N)NCCC[C@H](N[*:1])C(=O)CCC(=O)[*:2]; X1 = N=C(N)NCCC[C@H](N[*:1])C(=O)CCCCC(=O)[*:2]; Cha = N[C@@H](CC1CCCCC1)C(=O)O; dCha = N[C@H](CC1CCCCC1)C(=O)O; Ava = NCCCCC(=O)O

Assay [1] concerns the target T1, thrombin (Homo sapiens, UniProt P00734). Briefly: Antithrombin activity in vitro, Ki (Table III). Format: biochemical. The following applies: first test where two are given; means for 3-5 observations. The procedure:
The reactions were initiated by addition of the substrate dissolved in 0.1 M Tris-HCl buffer, pH 7.8 to a preincubated solution of enzyme (0.4 or 0.04 nM) and variable concentrations of inhibitor dissolved in the same buffer. Initial velocities were recorded and Ki values were determined graphically by weighted linear regression of Dixon plots in the case of competitive inhibition, or by the method of Baici (Baici, 1981) for hyperbolic inhibition. Fluorogenic assays were conducted using the same conditions and instrument as above operating in the fluorescence mode in the Ratio (λex=383 nm, λem=455 nm). Fluorescence intensities were calibrated with 7-amino-4-methyl coumarin solution of known concentration. The specificity of the synthetic peptides of the present invention for human α-thrombin may also be determined by comparing their relative inhibitory activities towards both human α-thrombin and bovine α-thrombin and trypsin by comparing Ki values obtained in the amidolytic assay of thrombin activity.

The target of assay [2] is human α-thrombin (Homo sapiens, UniProt P00734). Briefly: Fluorogenic amidolytic assay of thrombin activity, hydrolysis of Tosyl-Gly-Pro-Arg-AMC (Table I).
Assay [3] deals with human plasma clotting. Kind of assay: Human plasma clotting time. Format: biochemical. The following applies: read-out: IC50 plasma clotting time (concentration required to inhibit human plasma clotting time by 50%). The procedure:
Thus, for the determination of prothrombin time, 50 μl of reconstituted citrated normal human plasma (Sigma, St-Louis, Mo.) is mixed with 50 μl of thromboplastin solution at 37° C. in a 400 μl cuvette. […] The clotting time is recorded following recalcification with 100 μl of 25 mM CaCl2. The clotting time in the absence of inhibitor was between 19-22 sec.
The same procedure is adopted for the determination of activated partial thromboplastin time except that reconstituted plasma is activated for 3 minutes with cephalin (Sigma, St-Louis, Mo.).
**Concentration of compound required to inhibit human plasma clotting tim

Assay [4] has as its target T1, thrombin. Briefly: Thrombin time in buffer containing fibrinogen (dTT). Format: biochemical. The following applies: read-out: IC50 dTT (concentration required to double thrombin time). An excerpt:
*Concentration of compound required to double thrombin time in buffer

In assay [5] the test system is venous thrombosis in vena cava. Briefly: Venous thrombosis model (balloon catheter induced-injury and stasis in vena cava). To be noted: rats, i.v. bolus. Format: in vivo, rat. The procedure:
Rats ranging in weight from 350 g-450 g were anaesthetized with urethane [50%] at 1500 mg/kg IP. The abdomen and neck were shaved and prepared for surgery.
An incision was made from the base of the sternum to approximately 10-20 mm up from the penile sheath. Another incision was made across the end of the incision (90 degree) to create a flap to be hemostat open. […] Two sutures were loosely looped around the vein(1) and the vein and artery(2), just posterior to the renal veins and arteries. All other branches coming off dorsally from the vena cava were ligated as well as any other veins which may branch of this vein (approximately 4-6 depending on rat). Two more sutures were looped around the vein(1) and artery and vein(2) at the bifurcation of the femoral vein and artery. The right jugular vein was isolated, for later injection of compound.
An incision in the upper interior leg was made and the femoral vein and artery were exposed. The femoral vein was isolated and two sutures were looped around it. One suture was ligated distally, and the other one was pulled tight (proximal) to stop blood flow through the vessel. A very small incision was made into the vein and a 2F fogarty catheter was inserted. The catheter was fed up the femoral vein to the upper sutures (near the renal veins). At this point, inject the compound via the isolated right jugular vein and wait 1 minute. At 1 minute inflate the fogarty catheter with enough saline to distend the vena cava, but still allowing the catheter to be pulled back down to the point of femoral bifurcation without bursting the vessel. This procedure was repeated 3 times. After the third passage, the catheter was removed and as quickly as possible, the femoral incision was ligated with the proximal suture and the suture which was looped around only the vena cava was ligated to stop return flow and allow thrombus growth and the timer was set for 30 minutes.
At this point, the intestines may be placed back in the body cavity, and moistened with saline if any drying has occurred, and skin kept closed with hemostat. […]

The compound `CC[C@H](C)[C@H](NC(=O)[C@H](CCC(=O)O)NC(=O)[C@H](CCC(=O)O)NC(=O)[C@H](Cc1ccccc1)NC(=O)[C@H](CC(=O)O)NC(=O)CNC(=O)[C@H](CC(=O)O)NC(=O)[C@H](CC(N)=O)NC(=O)[C@H](Cc1c[nH]cn1)NC(=O)[C@H](CO)NC(=O)CNC(=O)CC(=O)[C@H](CCCNC(=N)N)NC(=O)[C@@H]1CCCN1C(=O)[C@@H](Cc1ccccc1)NC(C)=O)C(=O)N1CCC[C@H]1C(=O)N[C@@H](CCC(=O)O)C(=O)N[C@@H](CCC(=O)O)C(=O)N[C@@H](Cc1ccc(O)cc1)C(=O)N[C@@H](CC(C)C)C(=O)N[C@@H](CCC(N)=O)C(=O)O` [P109] showed a Ki in assay [1] of 2.25 nM.
Compound `CC[C@H](C)[C@H](NC(=O)[C@H](CCC(=O)O)NC(=O)[C@H](CCC(=O)O)NC(=O)[C@H](Cc1ccccc1)NC(=O)[C@H](CC(=O)O)NC(=O)CNC(=O)[C@H](CC(=O)O)NC(=O)[C@H](CC(N)=O)NC(=O)[C@H](Cc1c[nH]cn1)NC(=O)[C@H](CO)NC(=O)[C@H](CCC(N)=O)NC(=O)CCCCC(=O)[C@H](CCCNC(=N)N)NC(=O)[C@@H]1CCCN1C(=O)[C@@H](Cc1ccccc1)NC(C)=O)C(=O)N1CCC[C@H]1C(=O)N[C@@H](CCC(=O)O)C(=O)N[C@@H](CCC(=O)O)C(=O)N[C@@H](Cc1ccc(O)cc1)C(=O)N[C@@H](CC(C)C)C(=O)N[C@@H](CCC(N)=O)C(=O)O` [P103] gave a Ki in assay [2] of 0.14 ± 0.02 nM.
Consider “Ac(D-Phe)-Pro-Arg-(CH2)4 (CO)-[NH--CH2 --CH=CH--CH2 --(CO)]2 -DEFPIPY-OH ({Ac-dF-Pro-Arg-(CH2)4CO-NHCH2CH:CHCH2CO-NHCH2CH:CHCH2CO}-DEFPIPY-OH; also: Arg carbonyl bonded to (CH2)4 (non-amide backbone link)) [BCH-2414]”, for which, in assay [1], the inhibition constant Ki came to 1 nM. Further, the values for the IC50 in assay [3] and in assay [4] were 10.5 nM and 6.23 nM, respectively.
With `CC[C@H](C)[C@H](NC(=O)[C@@H]1CCCN1C(=O)[C@H](CCC(=O)O)NC(=O)[C@H](Cc1ccccc1)NC(=O)[C@H](CC(=O)O)NC(=O)CCCCNC(=O)CCCCNC(=O)CCCCC(=O)[C@H](CCCNC(=N)N)NC(=O)[C@@H]1CCCN1C(=O)[C@H](N)Cc1ccccc1)C(=O)N1CCC[C@H]1C(=O)N[C@@H](CC(C)C)C(=O)O` [BCH-2763, (D-Phe)-Pro-Arg-(CH2)4 (CO)--[NH(CH2)4 CO]2 -DFEPIPL-TFA salt] (H-[dF]P[X1][Ava][Ava]DFEPIPL-OH), in assay [1], the Ki amounted to 0.1 nM. Moreover, the IC50 in assay [4] was 1.3 nM.
In assay [2], `CC[C@H](C)[C@H](NC(=O)[C@H](CCC(=O)O)NC(=O)[C@H](CCC(=O)O)NC(=O)[C@H](Cc1ccccc1)NC(=O)[C@H](CC(=O)O)NC(=O)CNC(=O)[C@H](CC(=O)O)NC(=O)[C@H](CC(N)=O)NC(=O)[C@H](Cc1c[nH]cn1)NC(=O)[C@H](CO)NC(=O)[C@H](CCC(N)=O)NC(=O)CCCC(=O)[C@H](CCCNC(=N)N)NC(=O)[C@@H]1CCCN1C(=O)[C@@H](Cc1ccccc1)NC(C)=O)C(=O)N1CCC[C@H]1C(=O)N[C@@H](CCC(=O)O)C(=O)N[C@@H](CCC(=O)O)C(=O)N[C@@H](Cc1ccc(O)cc1)C(=O)N[C@@H](CC(C)C)C(=O)N[C@@H](CCC(N)=O)C(=O)O` [P102] showed a Ki of 0.56 nM.
`CC[C@H](C)[C@H](NC(=O)[C@@H]1CCCN1C(=O)[C@H](CCC(=O)O)NC(=O)[C@H](Cc1ccccc1)NC(=O)CCCCNC(=O)CCCCNC(=O)CCCCC(=O)[C@H](CCCNC(=N)N)NC(=O)[C@@H]1CCCN1C(=O)[C@H](N)Cc1ccccc1)C(=O)N1CCC[C@H]1C(=O)N[C@@H](CC(C)C)C(=O)O` [BCH-2767, (D-Phe)-Pro-Arg-(CH2)4 (CO)--[NH(CH2)4 CO]2 -FEPIPL-TFA salt] (H-[dF]P[X1][Ava][Ava]FEPIPL-OH): the Ki in assay [1] amounted to 40 nM. Also, the IC50 in assay [4] was 165 nM.
Consider `CC[C@H](C)[C@H](NC(=O)[C@@H]1CCCN1C(=O)[C@H](CCC(=O)O)NC(=O)[C@H](Cc1ccccc1)NC(=O)[C@H](CC(=O)O)NC(=O)CNC(=O)[C@H](CC(=O)O)NC(=O)[C@H](CC(N)=O)NC(=O)[C@H](Cc1c[nH]cn1)NC(=O)[C@H](CO)NC(=O)[C@H](CCC(N)=O)NC(=O)CCC(=O)[C@H](CCCNC(=N)N)NC(=O)[C@@H]1CCCN1C(=O)[C@@H](Cc1ccccc1)NC(C)=O)C(=O)N1CCC[C@H]1C(=O)N[C@@H](CCC(=O)O)C(=O)N[C@@H](CCC(=O)O)C(=O)N[C@@H](Cc1ccc(O)cc1)C(=O)N[C@@H](CC1CCCCC1)C(=O)N[C@@H](CCC(N)=O)C(=O)O` [BCH-2408] (Ac-[dF]P[Argψ(COCH2)Gly]QSHNDGDFEPIPEEY[Cha]Q-OH), for which, in assay [1], the Ki stood at 0.075 nM. The IC50 in assay [4] turned out to be 1 nM.
In assay [1], “Ac(D-Phe)-thioPro-Arg-(CH2)2 (CO)-QSHNDGDFEEIPEEYLQ-OH [P290]” registered a Ki of 0.9 nM. Further, in assay [3], the IC50 turned out to be 11 nM.
Compound `CC[C@H](C)[C@H](NC(=O)[C@@H]1CCCN1C(=O)[C@H](CCC(=O)O)NC(=O)[C@H](Cc1ccccc1)NC(=O)[C@H](CC(=O)O)NC(=O)CNC(=O)[C@H](CC(=O)O)NC(=O)[C@H](CC(N)=O)NC(=O)[C@H](Cc1c[nH]cn1)NC(=O)[C@H](CO)NC(=O)[C@H](CCC(N)=O)NC(=O)CCC(=O)[C@H](CCCNC(=N)N)NC(=O)[C@@H]1CCCN1C(=O)[C@@H](CC1CCCCC1)NC(C)=O)C(=O)N1CCC[C@H]1C(=O)N[C@@H](CCC(=O)O)C(=O)N[C@@H](CCC(=O)O)C(=O)N[C@@H](Cc1ccc(O)cc1)C(=O)N[C@@H](CC1CCCCC1)C(=O)N[C@@H](CCC(N)=O)C(=O)O` [P314] (Ac-[dCha]P[Argψ(COCH2)Gly]QSHNDGDFEPIPEEY[Cha]Q-OH) registered a Ki in assay [1] of 0.02 nM. In addition, the IC50 in assay [4] was 1.3 nM.
On to “Hirulog: comparator thrombin inhibitor, BCH number 1724”, for which the “Minimum Bolus dose needed to achieve patency” value in assay [5] lay within 0.05 to 0.125 mg/kg.
In turn, `CC[C@H](C)[C@H](NC(=O)[C@H](CCC(=O)O)NC(=O)[C@H](CCC(=O)O)NC(=O)[C@H](Cc1ccccc1)NC(=O)[C@H](CC(=O)O)NC(=O)CNC(=O)[C@H](CC(=O)O)NC(=O)[C@H](CC(N)=O)NC(=O)[C@H](Cc1c[nH]cn1)NC(=O)[C@H](CO)NC(=O)[C@H](CCC(N)=O)NC(=O)CCC(=O)[C@H](CCCNC(=N)N)NC(=O)[C@@H]1CCCN1C(=O)[C@@H](CC1CCCCC1)NC(C)=O)C(=O)N1CCC[C@H]1C(=O)N[C@@H](CCC(=O)O)C(=O)N[C@@H](CCC(=O)O)C(=O)N[C@@H](Cc1ccc(O)cc1)C(=O)N[C@@H](CC(C)C)C(=O)N[C@@H](CCC(N)=O)C(=O)O` [P311] displayed a Ki in assay [1] of 0.16 nM. Also, in assay [4], the IC50 is 1.35 nM.
Take [D-Phe^45, Ala^47 ]hirudin^45-65 [P73]: the Ki in assay [2] (read-out: Human Ki, human α-thrombin mediated hydrolysis of Tosyl-Gly-Pro-Arg-AMC, mean of three determinations ± SEM, ni = not inhibited) was 41 ± 15 nM.
`CC[C@H](C)[C@H](NC(=O)[C@@H]1CCCN1C(=O)[C@H](CCC(=O)O)NC(=O)[C@H](Cc1ccccc1)NC(=O)[C@H](CC(=O)O)NC(=O)CCCCNC(=O)CCCCNC(=O)CCCCC(=O)[C@H](CCCNC(=N)N)NC(=O)[C@@H]1CCCN1C(=O)[C@@H](Cc1ccccc1)NC(C)=O)C(=O)N1CCC[C@H]1C(=O)N[C@@H](CC(C)C)C(=O)O` [BCH-2739, Ac(D-Phe)-Pro-Arg-(CH2)4 (CO)--[NH(CH2)4 (CO)]2 -DFEPIPL-OH] (Ac-[dF]P[X1][Ava][Ava]DFEPIPL-OH) returned an inhibition constant (Ki) in assay [1] of 4 nM. For the same compound, the IC50 in assay [4] amounted to 14.5 nM.
